The assay concerns 817829-284-R-J1-PDC complex spheroid viability. As to the kind of experiment: Anticancer human tumor 817829-284-R-J1-PDC patient-derived colon adenocarcinoma cell line growth inhibition [POLQ]. The following applies: for viability, T/C: stronger effect = lower value. The procedure: Multicellular complex tumor spheroid response to Polymerase (POL) inhibitors (novobiocin, ART-558, RP6685) in combination with a variety of drugs and investigational agents in selected tumor cell lines
The POL inhibitors (novobiocin, ART-558, and RP6685) were evaluated both individually and in combination with standard of care and investigational anticancer small molecules within a complex spheroid model of solid tumors. . Complex spheroids include a stromal component modeled by human endothelial cells (HUVEC) and fibroblasts modeled by human mesenchymal stem cells (MSCs). The concentration ranges selected for each drug and investigational agent were based upon clinically achievable concentrations if the clinical Cmax of the agent was known.
Compounds. The drugs and investigational agents: novobiocin (NSC847541), ART-558 (NSC835418), RP-6685 (NSC848927), peposertib (NSC802822), ceralasertib (NSC780249), elimusertib (NSC800525), camonsertib (NSC841442), AZD-1390 (NSC803789), olaparib (NSC753686), talazoparib (NSC767125), rucaparib (NSC756644), sotorasib (NSC818433), MRTX-1133 (NSC836407), SN-38 (NSC673596), topotecan (NSC609699), epotoside (NSC141540), doxorubicin (NSC123127), gemcitabine (NSC613327), 5-fluorouracil (NSC19893), paclitaxel (NSC125973), vemurafenib (NSC761431), MSA-2 (NSC828583), SN-011 (NSC837082), adavosertib (NSC754352), prexasertib (NSC758257), carboplatin (NSC241240) and oxaliplatin (NSC266046), were obtained from the National Cancer Institute (NCI) Developmental Therapeutics Program Chemical Repository (21). The FDA-approved anticancer drug set is available from the Developmental Therapeutics Program at https://dtp.cancer.gov/organization/dscb/obtaining/. […] The stock solutions were prepared in dimethyl sulfoxide (DMSO, Sigma-Aldrich, St. Louis, MO, cat. D2650), except for the platinum compounds which were prepared in saline (Quality Biological, Gaithersburg, MD, cat. 114-055-101), at 800-fold the tested concentration and stored at -70 degrees C prior to their use. All drugs and investigational agents were tested over a range starting from a high concentration at or near the clinical Cmax and decreasing in half-log increments. If the clinical Cmax for an agent had not been determined, the highest concentration tested was 10 microM, except for SN-38, which was tested at a high concentration of 1 microM.
Cell Culture. All cells were maintained in an incubator at 37 degrees C and 5% CO2 with 95% humidity. The PDC lines were cultured according to standard operating procedures established by the NCI PDMR (https://pdmr.cancer.gov). Table 3 of the manuscript, lists the cell lines along with the number of the three cell types plated to form the mct-spheroids and media for tumor cell growth. After thawing, all PDC lines, except 997537-175-T-J1-PDC and 415267-285-R-J2-PDC, were cultured in Matrigel-coated flasks prepared with a working solution of 1X Ham's F-12 nutrient mix, without supplementation (Thermo Fisher Scientific, cat. 11765054), 100 U/mL penicillin-streptomycin (Thermo Fisher Scientific, cat. 15140122), and 2.5% Matrigel (Corning Inc., Corning, NY, cat. 354248) for the first three passages. The two PDC lines 997537-175-T-J1-PDC and 415267-285-R-J2-PDC were cultured on uncoated flasks. The 857933-349-R-J2-PDC line was cultured in 6C/Colon 1B media containing advanced DMEM/F-12 (Thermo Fisher Scientific, cat. 12634028), 10 mM HEPES (Thermo Fisher Scientific, cat. 15630080), 1X GlutaMAX supplement (Thermo Fisher Scientific, cat. 35050061), 0.1 mg/mL primocin (InvivoGen, San Diego, CA, cat. ant-pm-2), 10% defined fetal bovine serum, heat inactivated (HyClone Laboratories Inc., Logan, UT, cat. SH30070.03HI), 50% L-WRN conditioned media (ATCC, cat. CRL-3276), 1.25 mM N-Acetyl-L-cysteine (Sigma-Aldrich, cat. A9165), 10 mM nicotinamide (Sigma-Aldrich, cat. N0636), 1X B-27 supplement (Thermo Fisher Scientific, cat. 17504044), 1X N-2 supplement (Thermo Fisher Scientific, cat. […]

[1] abbreviates: compound alone, run of 11/27/2023.
[2] abbreviates: compound alone, run of 12/05/2023.
The mark [3] stands for this setting: curve of first compound, second compound 0.0316 µM.
Where [4] appears, read: curve of first compound, second compound 0.1 µM.
Setting [5] is: curve of first compound, second compound 0.316 µM.
Setting [6] is: curve of first compound, second compound 1 µM.
The mark [7] stands for this setting: curve of first compound, second compound 3.16 µM.
The mark [8] stands for this setting: curve of first compound, second compound 10 µM.
Where [9] appears, read: second compound 0.0316 µM, first compound 0.0316 µM.
[10] abbreviates: second compound 0.0316 µM, first compound 0.1 µM.
[11] abbreviates: second compound 0.0316 µM, first compound 0.316 µM.
Where [12] appears, read: second compound 0.0316 µM, first compound 1 µM.
Setting [13] is: second compound 0.1 µM, first compound 0.0316 µM.
The mark [14] stands for this setting: second compound 0.1 µM, first compound 0.1 µM.
The mark [15] stands for this setting: second compound 0.1 µM, first compound 0.316 µM.
Where [16] appears, read: second compound 0.1 µM, first compound 1 µM.
Where [17] appears, read: second compound 0.316 µM, first compound 0.0316 µM.
[18] abbreviates: second compound 0.316 µM, first compound 0.1 µM.
The mark [19] stands for this setting: second compound 0.316 µM, first compound 0.316 µM.
Setting [20] is: second compound 0.316 µM, first compound 1 µM.
Setting [21] is: second compound 1 µM, first compound 0.0316 µM.
The mark [22] stands for this setting: second compound 1 µM, first compound 0.1 µM.
Where [23] appears, read: second compound 1 µM, first compound 0.316 µM.
[24] abbreviates: second compound 1 µM, first compound 1 µM.
The mark [25] stands for this setting: second compound 3.16 µM, first compound 0.0316 µM.
Where [26] appears, read: second compound 3.16 µM, first compound 0.1 µM.
Where [27] appears, read: second compound 3.16 µM, first compound 0.316 µM.
The mark [28] stands for this setting: second compound 3.16 µM, first compound 1 µM.
The mark [29] stands for this setting: second compound 10 µM, first compound 0.0316 µM.
Setting [30] is: second compound 10 µM, first compound 0.1 µM.
Setting [31] is: second compound 10 µM, first compound 0.316 µM.
The mark [32] stands for this setting: second compound 10 µM, first compound 1 µM.

This is an account of results in PubChem BioAssay AID1963839 (Molecular Pharmacology Branch, DTP, NCI, 2024).

Several values for one entry are separate records, joined by “and”; a condition that tells them apart may be missing. Equal entries are not always repeated.
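Further: spheroids exposed to compounds for 7 days.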
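Wherever viability, T/C is given: 100% = DMSO vehicle-treated spheroids.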

In the case of `CC1COCCN1c1cc(C2(O)CC3CCC(C2)O3)c2cnn(-c3ccn[nH]3)c2n1` (centres undefined), the viability, T/C (compound 0.0316 µM) is 25.2% and 23.3% and 30.1%; the viability, T/C (compound 0.1 µM) is 8.33% and 10.7% and 8.37%; the viability, T/C (compound 0.316 µM) is 4.72% and 4.82% and 4.13%; the viability, T/C (compound 1 µM) is 3.5% and 3.16% and 3.44%; the viability, T/C (compound 3.16 µM) is 3.23% and 3.58% and 4.19%; the viability, T/C (compound 10 µM) is 2.41% and 1.97% and 3.04%. Also, the IC50 (curve of compound) was less than 31.6 nM.
As to `COC1C(OC(N)=O)C(O)C(Oc2ccc3c(O)c(NC(=O)c4ccc(O)c(CC=C(C)C)c4)c(=O)oc3c2C)OC1(C)C` (centres undefined), the IC50 under setting [1] is more than 10000 nM.
As for `Cc1cccc(N(C)C(=O)C2C(O)CCN2c2nc(C)cc(C(F)(F)F)c2C#N)c1` (centres undefined), where the note is “compound 10 µM”, the viability, T/C is 99.5% [middle of 13 runs]. Further, the IC50 reads like this: under setting [1], more than 10000 nM; under setting [2], more than 10000 nM.
With `Nc1ccc(C#CCN(C(=O)Cc2ncc(C(F)(F)F)cc2C(F)(F)F)c2ccc(F)cc2)nn1`, the viability, T/C is, setting by setting: (compound 3.16 µM) 97.9% [middle of 13 runs]; (compound 10 µM) 99.7% [middle of 13 runs]. Moreover, the IC50 under setting [2] is more than 10000 nM.
With `O=C(c1cc(Cc2n[nH]c(=O)c3ccccc23)ccc1F)N1CCN(C(=O)C2CC2)CC1`, the viability, T/C (compound 10 µM) is 22.3% and 7.71% and 32.7%.
Turning to `CC1COCCN1c1cc(-c2ccnn2C)c2ccnc(-c3ccn[nH]3)c2n1` (centres undefined) + COC1C(OC(N)=O)C(O)C(Oc2ccc3c(O)c(NC(=O)c4ccc(O)c(CC=C(C)C)c4)c(=O)oc3c2C)OC1(C)C, the IC50 is less than 31.6 nM under setting [3]; less than 31.6 nM under setting [4]; less than 31.6 nM under setting [5]; less than 31.6 nM under setting [6]; less than 31.6 nM under setting [7]; less than 31.6 nM under setting [8]. The viability, T/C is 30.4% under setting [9]; 13.2% under setting [10]; 5.49% under setting [11]; 4.46% under setting [12]; 3.26% (second compound 0.0316 µM, first compound 3.16 µM); 3.12% (second compound 0.0316 µM, first compound 10 µM). Further, the viability, T/C under setting [13] is 38.1%; the viability, T/C under setting [14] is 12.8%; the viability, T/C under setting [15] was 4.68%; the viability, T/C under setting [16] is 4.07%; the viability, T/C (second compound 0.1 µM, first compound 3.16 µM) is 3.1%; the viability, T/C (second compound 0.1 µM, first compound 10 µM) was 3.09%. Also, the viability, T/C is, setting by setting: under setting [17], 38.2%; under setting [18], 11.9%; under setting [19], 5.3%; under setting [20], 4.05%; (second compound 0.316 µM, first compound 3.16 µM) 3.4%; (second compound 0.316 µM, first compound 10 µM) 2.6%. For the same compound, the viability, T/C runs as follows: under setting [21], 26.4%; under setting [22], 11.9%; under setting [23], 5.6%; under setting [24], 4.46%; (second compound 1 µM, first compound 3.16 µM) 3.01%; (second compound 1 µM, first compound 10 µM) 2.34%. Moreover, the viability, T/C under setting [25] was 42.2%; the viability, T/C under setting [26] was 11%; the viability, T/C under setting [27] is 7.02%; the viability, T/C under setting [28] is 4.4%; the viability, T/C (second compound 3.16 µM, first compound 3.16 µM) was 2.97%; the viability, T/C (second compound 3.16 µM, first compound 10 µM) was 2.67%. Further, the viability, T/C under setting [29] was 47.5%; the viability, T/C under setting [30] was 13.4%; the viability, T/C under setting [31] is 5.44%; the viability, T/C under setting [32] was 4.22%; the viability, T/C (second compound 10 µM, first compound 3.16 µM) was 3.19%; the viability, T/C (second compound 10 µM, first compound 10 µM) is 2.65%.
For the compound `COc1cccc(OCCCN)c1-c1cc(Nc2cnc(C#N)cn2)n[nH]1` + COC1C(OC(N)=O)C(O)C(Oc2ccc3c(O)c(NC(=O)c4ccc(O)c(CC=C(C)C)c4)c(=O)oc3c2C)OC1(C)C, the IC50 runs as follows: under setting [3], less than 3.16 nM; under setting [4], less than 3.16 nM; under setting [5], less than 3.16 nM; under setting [6], less than 3.16 nM; under setting [7], less than 3.16 nM; under setting [8], less than 3.16 nM. Moreover, the viability, T/C is, setting by setting: (second compound 0.0316 µM, first compound 0.00316 µM) 29.9%; (second compound 0.0316 µM, first compound 0.01 µM) 8.3%; under setting [9], 5.67%; under setting [10], 5.85%; under setting [11], 4.68%; under setting [12], 3.39%. Also, the viability, T/C is 26% (second compound 0.1 µM, first compound 0.00316 µM); 11.2% (second compound 0.1 µM, first compound 0.01 µM); 6.67% under setting [13]; 5.76% under setting [14]; 5.35% under setting [15]; 3.07% under setting [16]. The viability, T/C by setting is: (second compound 0.316 µM, first compound 0.00316 µM) 29.5%; (second compound 0.316 µM, first compound 0.01 µM) 8.79%; under setting [17], 6.28%; under setting [18], 5.55%; under setting [19], 4.77%; under setting [20], 3.42%. The viability, T/C (second compound 1 µM, first compound 0.00316 µM) is 39.1%; the viability, T/C (second compound 1 µM, first compound 0.01 µM) is 8.54%; the viability, T/C under setting [21] is 6.62%; the viability, T/C under setting [22] was 4.99%; the viability, T/C under setting [23] is 4.97%; the viability, T/C under setting [24] is 3.65%. For the same compound, the viability, T/C is, setting by setting: (second compound 3.16 µM, first compound 0.00316 µM) 44.4%; (second compound 3.16 µM, first compound 0.01 µM) 8.05%; under setting [25], 5.78%; under setting [26], 4.98%; under setting [27], 4.52%; under setting [28], 4.11%. Besides, the viability, T/C (second compound 10 µM, first compound 0.00316 µM) is 26.2%; the viability, T/C (second compound 10 µM, first compound 0.01 µM) was 8.47%; the viability, T/C under setting [29] is 6.63%; the viability, T/C under setting [30] was 5.63%; the viability, T/C under setting [31] was 4.76%; the viability, T/C under setting [32] was 4.08%.
